Literature values as cited in patent US20110212474A1, “ABNORMAL ALTERATIONS OF PKC ISOZYMES PROCESSING IN ALZHEIMER'S DISEASE PERIPHERAL CELLS” (BLANCHETTE ROCKEFELLER NEUROSCIENCES INSTITUTE, priority 2009, published 2011).

Tests used:
[1] = test system: Aβ (1-42); details: transgenic mice with human AD genes
[2] = test system: PKC; details: postischemic/hypoxic treatment
[3] = test system: PKC-α; details: non-AD (AC) fibroblasts, nanomolar concentrations of Aβ (1-40)
[4] = test system: PKC-γ; details: AD fibroblasts, Aβ (1-40)

Compound	effect on Aβ (1-42) levels in the brains [1]	effect on ischemia-induced deficits in synaptogenesis, neurotrophic activity, and spatial learning and memory [2]	decrease in PKC-α immunoreactivity [3] [%]	reduction of PKC-γ immunoreactivity [4] [%]
CCC/C=C/C=C/C(=O)O[C@H]1/C(=C/C(=O)OC)C[C@H]2C[C@H]([C@@H](C)O)OC(=O)C[C@H](O)C[C@@H]3C[C@H](OC(C)=O)C(C)(C)[C@](O)(C[C@@H]4C/C(=C/C(=O)OC)C[C@H](/C=C/C(C)(C)[C@]1(O)O2)O4)O3 [bryostatin-1]	reduce Aβ (1-42) levels	effectively rescued ischemia-induced deficits		
Aβ (1-40): Aβ peptide, "short form," 40 amino acids in length, from Amyloid Precursor Protein			75	70
